In patent US12109301B2, “Formulations, methods, and systems for treating genitourinary conditions” (Massachusetts Institute of Technology, priority 2017, dated 2024):
Where two headings read alike, the source gives them in different places. One block for each molecule: values may come before it.

Tests used:
[1] = test system: human ureteral smooth muscle cell (hUSMC); assay: High throughput screening (HTS) of hUSMC relaxation (p-MLC vs unphosphorylated MLC, single-cell analysis); type: cell-based; details: for relaxation of smooth muscle cells within a cell population: 8 hour exposure; for relaxation of smooth muscle (in words): hUSMC, prolonged exposure (8 hours)
Source text: An HTS test was developed to quantify the contractile state of a human ureteral smooth muscle cell (hUSMC). Quantification of hUSMC relaxation was achieved by performing single-cell analysis using a computer vision (CellProfiler, Broad Institute, MA) approach that related each cell's fluorescence intensity to its state of muscle relaxation (comparing phosphorylated myosin with unphosphorylated myosin).
Primary hUMSCs were harvested from patients and cultured. There were about 10,000 cells per well, and 100 μL of media per well. Each well represented one experiment, and 250 nL of drug per well was delivered with DMSO (0.25% DMSO by volume).
In the test of this example, single cell analysis was performed on each cell (identified via computer vision) after exposure to various drugs which enable relaxation in order to correlate each cell's contractile state to the therapeutic compound, exposure time, and dose.
These correlations were determined by analyzing the fluorescent intensity of smooth muscle cells, which is related to the contractile state of the muscles. When a smooth muscle cell is signaled to contract, phosphorylation of myosin light-chain (p-MLC) occurs, which is a biomarker of muscle contraction. Conversely, when smooth muscle is left unphosphorylated (MLC), muscle relaxation occurs. Therefore, smooth muscle contraction can be computed from the proportion of p-MLC to unphosphorylated-MLC.
The tested agents included those in the following table.

[2] = test system: human ureteral smooth muscle cell (hUSMC); assay: Cell viability of hUSMC in the HTS of Example 1
Protocol: Eight-point dosing curves were performed starting at 25 μM. […] The results were collected from three separate screening runs across three unique primary hUSMC lines (derived from three separate patients).
These relaxation percentages were derived after an 8 hour exposure.

hUSMCs [3] = type: cell-based; details: human
whole porcine ureters = assay: Bench top ex vivo model, phenylephrine-stimulated contractions, intraluminal delivery; parameters: species or system pig
Protocol: An ex vivo bench top model was designed to permit the testing of whole ureteral segments. Flow through the ureteral segments was regulated, and ranged from 0.25 mL/minute to 60 mL/minute. […] The intraluminal reservoirs contained either preheated saline buffer or dilutions of any candidate therapeutic agent.
The pounds per square inch (PSI) pressure readings were obtained using a fiber-optic pressure catheter.
For this test, a ureter was prepared through intraluminal delivery of saline (Krebs-Henseleit Buffer) (BUF) only (region “i”). The experiment then was initiated and phenylephrine [10 mM] was added to the Krebs infusion to stimulate baseline peristaltic contractions seen in patients with urinary stones (region “ii”). […] [1 μM]
Cumulative ureteral contractions were plotted over the course of the entire experiment, and are depicted at FIG. 8. For this test, a ureter was prepared through intraluminal delivery of saline (BUF) only (region “i”). The experiment was initiated and phenylephrine [10 mM] was added to the Krebs infusion to stimulate baseline peristaltic contractions seen in patients with urinary stones (region “ii”).

[4] = Protocol: A commercially available surgical lubricant (SURGILUBE® lubricant) was combined with a surfactant. The surfactant was Polysorbate 20, and 0.6 mL of the Polysorbate 20 was added to 19.4 mL of the surgical lubricant.
However, more surfactant may be added to increase drug concentration, e.g., up to about 500 μM.

hUSMCs [5] = details: for Percentages of Cells that Remained Contracted After Treatment: Nifedipine 0 μM

Compound: Cc1ccc(-c2cc(C(F)(F)F)nn2-c2ccc(S(N)(=O)=O)cc2)cc1 [Celecoxib]
relaxation of smooth muscle cells within a cell population ([1]; 12.5 μM): 20%
relaxation of smooth muscle cells within a cell population ([1]; 25 μM): 30%
toxicity to the tested cells (false hit) [2]: toxicity killed the tested cells

Compound: CCOc1ccccc1OCCN[C@H](C)Cc1ccc(OC)c(S(N)(=O)=O)c1 [Tamsulosin]
cell population relaxation ([1]; 6.25 μM or greater): ~20%
relaxation of smooth muscle (in words) [1]: demonstrated efficacy at certain doses

Compound: CCCc1nc(C)c2c(=O)[nH]c(-c3cc(S(=O)(=O)N4CCN(CC)CC4)ccc3OCC)nn12 [Vardenafil]
cell population relaxation ([1]; 1.56 μM or greater): ~20%

actual drug retention in the surgical lubricant/surfactant mixture [4]: about 200 μM
Compound: C[C@@H](N)[C@H]1CC[C@H](C(=O)Nc2ccncc2)CC1 [Y-27632]
Percentages of Cells that Retained Viability (hUSMCs [3]; 3.13 μM): 110%
Percentages of Cells that Retained Viability (hUSMCs [3]; 25 μM): 100%
Percentages of Cells that Retained Viability (hUSMCs [3]; 50 μM): 95%
reduction in contractile frequency (whole porcine ureters; 10 μM intraluminally): 3 ×
contractile activity of ureter (in words) (whole porcine ureters; 10 μM intraluminally, with 10 mM phenylephrine, listed as Y27632 (ROCK)): rapid relaxation of the ureter
frequency of peristaltic activity (in words) (whole porcine ureters; 10 μM with 10 mM phenylephrine, region iii): significant decrease in frequency
reduction in the slope of linear regression of cumulative contractions (whole porcine ureters; 10 μM, region iii vs other regions of FIG. 8): ≥ 3 ×
effect after removal from the infusion (region iv) (whole porcine ureters; phenylephrine 10 mM and saline buffer continued): the effects were reversed
relaxation of smooth muscle cells within a cell population ([1]; 3.13 μM): 20%
hUSMC population relaxed (greatest effect, FIG. 1) ([1]; after an 8 hour exposure): about 40%
relaxation of smooth muscle (in words) ([1]; listed as ROCK Y-27632): significant relaxation of smooth muscle
relaxation of smooth muscle (in words) ([1]; listed as Y-27632 (ROCK)): relatively significant cell relaxation
relaxation (hUSMCs [5]; 25 μM alone, 8 hour exposure): about 45%
Percentages of Cells that Remained Contracted After Treatment (hUSMCs [5]; ROCK 1.56 μM): 81%
Percentages of Cells that Remained Contracted After Treatment (hUSMCs [5]; ROCK 3.13 μM): 71%
Percentages of Cells that Remained Contracted After Treatment (hUSMCs [5]; ROCK 6.25 μM): 67%
Percentages of Cells that Remained Contracted After Treatment (hUSMCs [5]; ROCK 12.50 μM): 59%
Percentages of Cells that Remained Contracted After Treatment (hUSMCs [5]; ROCK 25.00 μM): 54%
Percentages of Cells that Remained Contracted After Treatment (hUSMCs [5]; ROCK 50.00 μM): 50%
Percentages of Cells that Remained Contracted After Treatment (hUSMCs [5]; ROCK […]): 86%
